# Assay results as given in patent US7807677B2, “HIV protease inhibitors” (Medivir AB, priority 2005, dated 2010).
# Where two headings read alike, the source gives them in different places.
# What was measured:
# [1] = molecular target: T1, HIV-1 protease (Human immunodeficiency virus type 1 group M subtype B, UniProt P04585); experiment: biochemical
# [2] = tested on: HIV-1IIIB (wild type); experiment: Antiviral activity in cell culture (XTT assay in MT-4 cells); type: cell-based; conditions: Human immunodeficiency virus 1, MT4, read-out: ED50 (μM)
# Procedure: Compounds of the invention are assayed for HIV activity, for example using multiple determinations with XTT in MT-4 cells (Weislow et al, J Nat Cancer Inst 1989, vol 81 no 8, 577 et seq), preferably including determinations in the presence of 40-50% human serum to indicate the contribution of protein binding. In short the XTT assay uses human T cell line MT4 cells grown in RPMI 1640 medium supplemented with 10% fetal calf serum (or 40-50% human serum as appropriate), penicillin and streptomycin seeded into 96 well microplates (2·10^4 cells/well) infected with 10-20 TCID50 per well of HIV-1IIIB (wild type) or mutant virus, such as those bearing RT Ile 100, Cys 181 or Asn 103 mutations. Serially diluted test compounds are added to respective wells and the culture incubated at 37° C. in a CO2 enriched atmosphere and the viability of cells is determined at day five or six with XTT vital dye. Results are typically presented as ED50 μM.
# Exp. Med. Biol., 1998, 436, 99-103. […] Agents Chemother., 1997, 41, 2383-2388.
# [3] = tested on: cytochrome P450 3A enzyme; conditions: inhibitor of the cytochrome P450 3A enzyme; cited from earlier work
# [4] = cited from earlier work
# [5] = molecular target: T1, HIV-1 protease; conditions: Enzyme Inhibition
Compound,Ki [1] [nM],EC50 [2] [µM],also measured
"CC(C)(C)[C@H](NC(=O)OCc1ccccc1)C(=O)NN(Cc1ccccc1)C[C@@](O)(Cc1ccccc1)C(=O)N[C@H]1c2ccccc2C[C@H]1O [Compound 13, {(1S)-1-[N′-Benzyl-N′-((2S)-2-hydroxy-2-((1S,2R)-2-hydroxy-indan-1-ylcarbamoyl)-3-phenyl-propyl)-hydrazinocarbonyl]-2,2-dimethyl-propyl}-carbamic acid benzyl ester]",11 to 50,–,–
"COC(=O)N[C@H](C(=O)NN(Cc1ccccc1)C[C@@](O)(Cc1ccccc1)C(=O)N[C@H]1c2ccccc2C[C@H]1O)C(C)(C)C [Compound 15, {(1S)-1-[N′-Benzyl-N′-((2S)-2-hydroxy-2-((1S,2R)-2-hydroxy-indan-1-ylcarbamoyl)-3-phenyl-propyl)-hydrazinocarbonyl]-2,2-dimethyl-propyl}-carbamic acid methyl ester]",< 10,2 to 10,–
"COC(=O)N[C@H](C(=O)N[C@@H](Cc1ccccc1)[C@@H](O)CN(Cc1ccc(-c2ccccn2)cc1)NC(=O)[C@@H](NC(=O)OC)C(C)(C)C)C(C)(C)C [Atazanavir, atazanavir]",–,–,"Ki [3]: 2400 nM; increase in exposure (saquinavir) ([4]; due to combination with atazanavir, multiple-dose pharmacology study): greater than 3 fold"
"COC(=O)N[C@H](C(=O)NN(Cc1ccccc1)C[C@@](O)(Cc1ccccc1)C(=O)N[C@H]1c2ccccc2C[C@H]1O)C(C)C [Compound 14, {(1S)-1-[N′-Benzyl-N′-((2S)-2-hydroxy-2-((1S,2R)-2-hydroxy-indan-1-ylcarbamoyl)-3-phenyl-propyl)-hydrazinocarbonyl]-2-methyl-propyl}-carbamic acid methyl ester]",< 10,2 to 10,–
"{(1S)-1-[N′-(4-Bromo-benzyl)-N′-((2S)-2-hydroxy-2-((1S,2R)-2-hydroxy-indan-1-ylcarbamoyl)-3-phenyl-propyl)-hydrazinocarbonyl]-2-methyl-propyl}-carbamic acid benzyl ester [Compound 20]",–,–,Ki [5]: 11 to 50 nM
"CC(C)(C)[C@H](NS(C)(=O)=O)C(=O)NN(Cc1ccccc1)C[C@@](O)(Cc1ccccc1)C(=O)N[C@H]1c2ccccc2C[C@H]1O [Compound 17, (2S)-2-Benzyl-3-[N-benzyl-N′-((2S)-2-methanesulfonylamino-3,3-dimethyl-butyryl)-hydrazino]-2-hydroxy-N-((1S,2R)-2-hydroxy-indan-1-yl)-propionamide]",50 to 100,–,–
"CC(C)(C)[C@H](NC(=O)NCc1ccccc1)C(=O)NN(Cc1ccccc1)C[C@@](O)(Cc1ccccc1)C(=O)N[C@H]1c2ccccc2C[C@H]1O [Compound 18, (2S)-2-Benzyl-3-{N-Benzyl-N′-[(2S)-2-(3-benzyl-ureido)-3,3-dimethyl-butyryl]-hydrazino}-2-hydroxy-N-((1S,2R)-2-hydroxy-indan-1-yl)-propionamide]",11 to 50,–,–
"COC(=O)N[C@H](C(=O)NN(Cc1ccc(Br)cc1)C[C@@](O)(Cc1ccccc1)C(=O)N[C@H]1c2ccccc2C[C@H]1O)C(C)(C)C [Compound 19, {(1S)-1-[N′-(4-Bromo-benzyl)-N′-((2S)-2-hydroxy-2-((1S,2R)-2-hydroxy-indan-1-ylcarbamoyl)-3-phenyl-propyl)-hydrazinocarbonyl]-2,2-dimethyl-propyl}-carbamic acid methyl ester]",–,< 2,–
Cc1c(O)cccc1C(=O)N[C@@H](CSc1ccccc1)[C@H](O)CN1C[C@H]2CCCC[C@H]2C[C@H]1C(=O)NC(C)(C)C [nelfinavir],–,–,"increase the exposure of saquinavir ([4]; saquinavir dosed at 1200 mg thrice-daily (TID), at steady-state): 392%"
"CC(C)[C@H](NC(=O)OCc1ccccc1)C(=O)NN(Cc1ccccc1)C[C@@](O)(Cc1ccccc1)C(=O)N[C@H]1c2ccccc2C[C@H]1O [Compound 11, {(1S)-1-[N′-Benzyl-N′-((2S)-2-hydroxy-2-((1S,2R)-2-hydroxy-indan-1-ylcarbamoyl)-3-phenyl-propyl)-hydrazinocarbonyl]-2-methyl-propyl}-carbamic acid benzyl ester]",11 to 50,–,–
